# Test results reported in BindingDB's records for doi:10.1021/jm00021a005 (University of Wisconsin-Madison, 1995).
# Target: Peptidyl-prolyl cis-trans isomerase A, cyclophilin A (Homo sapiens) (UniProt P62937)
# Test: The compound was tested for inhibition of […] isomerase (PPIase).
# Peptidyl-prolyl cis-trans isomerase A, cyclophilin A (Homo sapiens), sequence (P62937 whole entry, looked up): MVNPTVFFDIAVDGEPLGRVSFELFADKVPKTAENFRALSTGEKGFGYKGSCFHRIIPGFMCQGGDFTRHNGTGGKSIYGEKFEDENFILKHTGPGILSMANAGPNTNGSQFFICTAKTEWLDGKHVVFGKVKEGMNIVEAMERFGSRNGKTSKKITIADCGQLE
row,SMILES,Ki [nM]
1,"C/C=C/CC(C)[C@@H](O)[C@H]1C(=O)N[C@@H](CC)C(=O)N(C)CC(=O)N(C)[C@@H](CC(C)C)C(=O)N[C@@H](C(C)C)C(=O)N(C)[C@H](CC(C)C)C(=O)N[C@H](Cc2ccccc2)C(=O)N[C@@H](CO)C(=O)N(C)[C@H](CC(C)C)C(=O)N(C)[C@@H](CC(C)C)C(=O)N(C)[C@H](C(C)C)C(=O)N1C (stereo partly drawn) [15-Benzyl-30-ethyl-12-hydroxymethyl-33-(1-hydroxy-2-methyl-hex-4-enyl)-6,9,18,24-tetraisobutyl-3,21-diisopropyl-1,4,7,10,19,25,28-heptamethyl-1,4,7,10,13,16,19,22,25,28,31undecaaza-cyclotritriacontan-2,5,8,11,14,17,20,23,26,29,32-undecaone]",6
2,"C/C=C/CC(C)C(O)[C@H]1C(=O)N[C@@H](CC)C(=O)N(C)[C@H](C)C(=O)N(C)[C@@H](CC(C)C)C(=O)N[C@@H](C(C)C)C(=O)N(C)[C@H](CC(C)C)C(=O)N[C@H](Cc2ccccc2)C(=O)N[C@H](C)C(=O)N(C)[C@H](CC(C)C)C(=O)N(C)[C@@H](CC(C)C)C(=O)N(C)[C@H](C(C)C)C(=O)N1C (stereo partly drawn) [15-Benzyl-30-ethyl-33-(1-hydroxy-2-methyl-hex-4-enyl)-6,9,18,24-tetraisobutyl-3,21-diisopropyl-1,4,7,10,12,19,25,27,28-nonamethyl-1,4,7,10,13,16,19,22,25,28,31undecaaza-cyclotritriacontan-2,5,8,11,14,17,20,23,26,29,32-undecaone]",6
3,"C/C=C/CC(C)[C@@H](O)[C@H]1C(=O)N[C@@H](CC)C(=O)N(C)CC(=O)N(C)[C@@H](CC(C)C)C(=O)N[C@@H](C(C)C)C(=O)N(C)[C@H](CC(C)C)C(=O)N[C@H](Cc2ccccc2)C(=O)N[C@H](C)C(=O)N(C)[C@H](CC(C)C)C(=O)N(C)[C@@H](CC(C)C)C(=O)N(C)[C@H](C(C)C)C(=O)N1C (stereo partly drawn) [15-Benzyl-30-ethyl-33-(1-hydroxy-2-methyl-hex-4-enyl)-6,9,18,24-tetraisobutyl-3,21-diisopropyl-1,4,7,10,12,19,25,28-octamethyl-1,4,7,10,13,16,19,22,25,28,31undecaaza-cyclotritriacontan-2,5,8,11,14,17,20,23,26,29,32-undecaone]",33
